Results as given in US9242943B2, “1,4 oxazines as BACE1 and/or BACE2 inhibitors” (SIENA BIOTECH S.P.A., priority 2011, dated 2016).

Assays:
BACE1 = BACE1 (Homo sapiens (Human), UniProt P56817); experiment: Cellular Aβ-lowering assay (Aβ40 ELISA, HEK293 cells expressing human APP695); assay type: cell-based; settings: HEK293 cells stably transfected with human APP695; 18-20 hrs incubation; Aβ40 in supernatant; read-out: BACE1 cell act. Aβ40 IC50
Experimental: Cellular Aβ-Lowering Assay:
Human HEK293 cells which are stably transfected with a vector expressing a cDNA of the human APP wt gene (APP695) were used to assess the potency of the compounds in a cellular assay. The cells were seeded in 96-well microtiter plates in cell culture medium (Iscove, plus 10% (v/v) fetal bovine serum, glutamine, penicillin/streptomycin) to about 80% confluence and the compounds were added at a 10× concentration in 1/10 volume of medium without FCS containing 8% DMSO (final concentration of DMSO was kept at 0.8% v/v). After 18-20 hrs incubation at 37° C. and 5% CO2 in a humidified incubator the culture supernatant was harvested for the determination of […] concentrations. 96well ELISA plates (e.g., Nunc MaxiSorb) were coated with monoclonal antibody which specifically recognize the C-terminal end of […] (Brockhaus et al., NeuroReport 9, 1481-1486; 1998). After blocking of non-specific binding sites with e.g. 1% BSA and washing, the culture supernatants were added in suitable dilutions together with a horseradish peroxidase-coupled Aβ detection antibody (e.g., antibody 4G8, Senetek, Maryland Heights, Mo.) and incubated for 5 to 7 hrs. Subsequently the wells of the microtiter plate were washed extensively with Tris-buffered saline containing 0.05% Tween 20 and the assay was developed with tetramethylbenzidine/H2O2 in citric acid buffer. After stopping the reaction with one volume 1 N H2SO4 the reaction was measured in an ELISA reader at 450 nm wavelength. The concentrations of Aβ in the culture supernatants were calculated from a standard curve obtained with known amounts of pure Aβ peptide.

CYP2C9 = CYP2C9 (Homo sapiens (Human), UniProt P11712); experiment: CYP inhibition assay, human liver microsomes, diclofenac 4' hydroxylase; assay type: in vitro ADME; settings: pooled human liver microsomes, diclofenac substrate; read-out: CYP IC50 2C9
Experimental: (§1) Inhibition of cytochromes P450 (CYPs) 2C9, 2D6 and 3A4 was assessed using human liver microsomes and CYP-selective substrate metabolism reactions. 50 μl incubations were made up containing (finally) 0.2 mg/ml pooled human liver microsomes, 5 μM substrate (diclofenac for CYP2C9 [4′ hydroxylase], dextromethorphan for CYP2D6 [O-demethylase] or midazolam for CYP3A4 [1′ hydroxylase]), 0.25 μl, DMSO containing test inhibitor and NADPH regenerating system. Test inhibitor concentrations of 50, 16.7, 5.6, 1.9, 0.6 and 0.2 μM were assessed in singlicate. Incubations were prewarmed to 37° C. for 10 minutes before initiation by addition of NADPH regenerating system. Incubations were quenched after 5 minutes (20 minutes for dextromethorphan) by addition of 50 μl cold acetonitrile containing 20 ng/ml 4-OH-diclofenac-13C6, 20 ng/mL dextrorphan-D3 and 20 ng/mL 1-OH-midazolam-D4. Quenched incubates were stored at −20° C. for at least 1 hour before centrifugation (20,000×g, 20 minutes). Supernatants were removed and diluted 1:1 with water prior to analysis using a RapidFire sample injector system and API4000 mass spectrometer. Peak areas for substrate, metabolite and stable-labelled metabolite standard were determined using MS/MS. […] The percentage of (DMSO) control activity was calculated for each incubate and IC50 values estimated by non-linear regression. […]

BACE2 = BACE2 (Rattus norvegicus (Rat), UniProt Q6IE75); experiment: Assay for BACE inhibition by measuring cellular TMEM27 cleavage (INS-TMEM27 cells, ELISA); assay type: cell-based; settings: INS-TMEM27 (INS1e-derived) cells; shed TMEM27 in supernatant; read-out: BACE2 cell act. IC50
Source text: Assay for BACE Inhibition by Measuring Cellular TMEM27 Cleavage:
The assay uses the principle of inhibition of human TMEM27 cleavage by endogenous cellular BACE2 in the Ins1e rat cell line and shedding from the cell surface into the culture medium, followed by detection in an ELISA assay. Inhibition of BACE2 prevents the cleavage and shedding in a dose-dependent manner
The stable cell line “INS-TMEM27” represents an INS1e-derived cell line with inducible expression (using the TetOn system) of full-length hTMEM27 in a doxycycline-dependent manner. The cells are cultured throughout the experiment in RPMI1640 +Glutamax (Invitrogen) Penicillin/Streptomycin, 10% Fetal bovine serum, […], […], 100 micrograms/ml G418 and 100 microgram/ml hygromycin and are grown inadherent culture at 37° C. in a standard CO2 cell culture incubator.
INS-TMEM27 cells are seeded in 96-well plates. After 2 days in culture, BACE2 inhibitor is added in a range of concentrations as required by the assay and after a further two hours, doxycycline is added to a final concentration of 500 ng/ml. The cells are incubated for a further 46 hours and the supernatant harvested for detection of shed TMEM27.
An ELISA assay (using a pair of mouse anti-human-TMEM27 antibodies, raised against the extracellular domain of TMEM27) is used for detection of TMEM27 in the culture medium. An EC50 for BACE2 inhibition is calculated using the ELISA readout for each inhibitor concentration with standard curve-fitting software such as XLFit for the Excel spreadsheet program.

CYP3A4 = CYP3A4 (Homo sapiens (Human), UniProt P08684); experiment: CYP inhibition assay, human liver microsomes, midazolam 1' hydroxylase; assay type: in vitro ADME; settings: pooled human liver microsomes, midazolam substrate; read-out: CYP IC50 3A4
Experimental: as §1

CYP2D6 = CYP2D6 (Homo sapiens (Human), UniProt P10635); experiment: CYP inhibition assay, human liver microsomes, dextromethorphan O-demethylase; assay type: in vitro ADME; settings: pooled human liver microsomes, dextromethorphan substrate; read-out: CYP IC50 2D6
Experimental: as §1

[1] = biological target: cathepsin D (from human liver) (Homo sapiens (Human), UniProt P07339); experiment: Cathepsin D fluorescent substrate kinetic assay (MR121); assay type: biochemical; settings: pH 5.5, substrate WTSVLMAAPC-MR121
Source text: (§2) Cathepsin D and Cathepsin E Fluorescent Substrate Kinetic Assays General Assay Principle
(§3) The MR121 fluorescence assays described below are based on the fact that MR121 forms a non-fluorescent ground state complex with tryptophan. In solution this formation occurs at millimolar concentrations of tryptophan. The mechanism can be used to design a generic biochemical assay for proteases. A substrate peptide is labeled at the N-terminus with tryptophan and at the C-terminus with the fluorophore MR121 (for cathepsin D the 10 amino acid peptide WTSVLMAAPC-MR121 was used; for cathepsin E, MR121-CKLVFFAEDW was used). In absence of protease activity, the substrates remain intact and the MR121 fluorescence is reduced by the high local Trp-concentration. If the substrates are cleaved by the enzymes the MR121 fluorescence is recovered.
(§4) The fluorescent substrate cathepsin D and cathepsin E kinetic assays were performed at room temperature in 384-well microtiter plates (black with clear flat bottom, non binding surface plates from Corning) in a final volume of 51 μl. […] The enzymatic reaction was followed in a plate: vision reader (Perkin Elmer) (excitation wavelength: 630 nm; emission: 695 nm) for at least 30 minutes in a kinetic measurement detecting an increase of MR121 fluorescence during the reaction time. […]

[2] = biological target: recombinant human cathepsin E (Homo sapiens (Human), UniProt P14091); experiment: Cathepsin E fluorescent substrate kinetic assay (MR121); assay type: biochemical; settings: pH 4.5, substrate MR121-CKLVFFAEDW
Source text: as §2, §3, §4

Sequence of BACE1 (P56817 46-501): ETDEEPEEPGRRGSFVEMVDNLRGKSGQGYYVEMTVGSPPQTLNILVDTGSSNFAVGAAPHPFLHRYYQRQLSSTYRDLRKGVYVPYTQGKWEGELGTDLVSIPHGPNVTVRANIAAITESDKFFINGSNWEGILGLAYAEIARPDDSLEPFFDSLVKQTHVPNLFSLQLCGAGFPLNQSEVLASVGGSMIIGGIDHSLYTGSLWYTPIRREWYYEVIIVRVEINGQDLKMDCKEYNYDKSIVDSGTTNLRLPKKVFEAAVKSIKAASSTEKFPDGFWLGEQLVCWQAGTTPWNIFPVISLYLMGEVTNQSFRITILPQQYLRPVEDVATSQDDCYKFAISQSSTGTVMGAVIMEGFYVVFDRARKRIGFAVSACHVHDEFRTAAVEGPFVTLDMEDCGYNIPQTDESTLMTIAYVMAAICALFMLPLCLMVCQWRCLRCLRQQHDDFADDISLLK
Sequence of BACE2 (Q6IE75 63-514): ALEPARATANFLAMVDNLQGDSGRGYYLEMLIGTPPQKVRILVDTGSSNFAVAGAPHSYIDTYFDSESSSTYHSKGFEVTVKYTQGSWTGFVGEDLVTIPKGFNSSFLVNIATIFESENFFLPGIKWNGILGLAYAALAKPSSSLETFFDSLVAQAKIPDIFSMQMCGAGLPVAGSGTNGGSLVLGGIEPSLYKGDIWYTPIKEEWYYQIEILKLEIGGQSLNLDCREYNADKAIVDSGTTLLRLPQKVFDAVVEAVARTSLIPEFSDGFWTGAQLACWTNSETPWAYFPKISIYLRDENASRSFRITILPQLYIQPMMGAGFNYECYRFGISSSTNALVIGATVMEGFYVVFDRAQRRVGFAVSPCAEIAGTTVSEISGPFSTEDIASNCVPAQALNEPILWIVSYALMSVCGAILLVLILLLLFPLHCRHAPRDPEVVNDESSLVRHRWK
Sequence of cathepsin D (from human liver) (P07339 169-412): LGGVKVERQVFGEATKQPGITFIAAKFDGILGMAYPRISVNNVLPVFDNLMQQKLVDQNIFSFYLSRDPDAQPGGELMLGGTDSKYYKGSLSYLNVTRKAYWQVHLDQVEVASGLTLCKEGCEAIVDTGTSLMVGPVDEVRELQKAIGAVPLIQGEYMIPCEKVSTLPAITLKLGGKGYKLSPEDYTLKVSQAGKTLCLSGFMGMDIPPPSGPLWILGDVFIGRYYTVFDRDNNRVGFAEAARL
Sequence of cathepsin D (from human liver) (P07339 65-162): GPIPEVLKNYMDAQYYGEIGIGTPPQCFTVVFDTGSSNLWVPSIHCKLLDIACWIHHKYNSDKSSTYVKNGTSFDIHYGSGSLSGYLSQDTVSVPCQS
Sequence of CYP3A4 (P08684 whole entry): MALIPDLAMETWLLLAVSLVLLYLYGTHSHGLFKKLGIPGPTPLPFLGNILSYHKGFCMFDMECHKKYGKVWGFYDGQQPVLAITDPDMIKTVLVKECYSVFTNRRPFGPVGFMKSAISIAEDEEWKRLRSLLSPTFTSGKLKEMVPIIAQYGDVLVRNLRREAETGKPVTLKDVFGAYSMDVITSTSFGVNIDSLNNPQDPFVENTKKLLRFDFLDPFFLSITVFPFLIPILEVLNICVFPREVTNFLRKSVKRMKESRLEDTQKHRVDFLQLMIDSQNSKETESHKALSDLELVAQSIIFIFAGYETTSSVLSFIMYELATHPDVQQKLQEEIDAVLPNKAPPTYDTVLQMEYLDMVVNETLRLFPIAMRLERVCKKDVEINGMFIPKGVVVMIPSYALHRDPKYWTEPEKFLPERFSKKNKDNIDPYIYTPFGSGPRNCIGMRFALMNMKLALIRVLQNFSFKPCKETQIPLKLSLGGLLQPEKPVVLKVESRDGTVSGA
Sequence of CYP2C9 (P11712 whole entry): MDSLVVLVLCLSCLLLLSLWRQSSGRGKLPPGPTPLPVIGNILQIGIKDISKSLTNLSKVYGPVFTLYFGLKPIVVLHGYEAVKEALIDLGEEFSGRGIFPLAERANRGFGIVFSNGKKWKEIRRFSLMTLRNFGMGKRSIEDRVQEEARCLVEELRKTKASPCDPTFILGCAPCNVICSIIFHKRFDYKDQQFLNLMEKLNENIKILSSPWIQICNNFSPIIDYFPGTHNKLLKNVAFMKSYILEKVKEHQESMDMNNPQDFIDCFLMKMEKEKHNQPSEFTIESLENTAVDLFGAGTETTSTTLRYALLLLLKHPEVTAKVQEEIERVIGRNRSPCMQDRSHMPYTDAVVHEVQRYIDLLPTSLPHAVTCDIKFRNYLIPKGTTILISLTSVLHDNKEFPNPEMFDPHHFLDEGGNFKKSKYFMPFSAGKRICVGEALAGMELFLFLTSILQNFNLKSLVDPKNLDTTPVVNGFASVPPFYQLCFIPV
Sequence of recombinant human cathepsin E (P14091 54-396): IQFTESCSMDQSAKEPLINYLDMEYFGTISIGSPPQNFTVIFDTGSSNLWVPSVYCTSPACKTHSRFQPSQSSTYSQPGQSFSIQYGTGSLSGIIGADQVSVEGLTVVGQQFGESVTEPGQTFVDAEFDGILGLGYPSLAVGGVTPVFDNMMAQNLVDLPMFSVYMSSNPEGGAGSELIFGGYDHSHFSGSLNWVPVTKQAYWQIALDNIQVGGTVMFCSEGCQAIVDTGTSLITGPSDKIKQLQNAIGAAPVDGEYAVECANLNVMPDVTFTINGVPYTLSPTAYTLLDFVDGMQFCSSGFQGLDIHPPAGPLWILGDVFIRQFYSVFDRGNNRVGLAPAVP
Sequence of CYP2D6 (P10635 whole entry): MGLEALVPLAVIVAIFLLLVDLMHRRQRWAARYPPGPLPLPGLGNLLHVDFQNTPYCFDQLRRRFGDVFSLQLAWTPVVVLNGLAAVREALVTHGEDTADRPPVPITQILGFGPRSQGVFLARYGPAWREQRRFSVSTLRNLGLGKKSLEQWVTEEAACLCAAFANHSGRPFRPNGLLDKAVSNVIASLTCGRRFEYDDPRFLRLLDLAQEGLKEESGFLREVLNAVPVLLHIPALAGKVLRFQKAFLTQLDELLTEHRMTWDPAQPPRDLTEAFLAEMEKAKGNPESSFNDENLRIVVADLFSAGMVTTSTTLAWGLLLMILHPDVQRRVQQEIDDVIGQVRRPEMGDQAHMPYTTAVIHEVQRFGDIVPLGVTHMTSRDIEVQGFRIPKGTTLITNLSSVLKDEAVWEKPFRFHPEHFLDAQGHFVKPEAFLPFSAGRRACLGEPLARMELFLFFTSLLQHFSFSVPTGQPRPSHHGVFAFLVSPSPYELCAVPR

Row | SMILES | IC50 (BACE1) | IC50 (CYP2C9) | IC50 (BACE2) | IC50 (CYP3A4) | IC50 (CYP2D6) | IC50 [1] | IC50 [2]
1 | C[C@@]1(c2cc(Nc3cc(Cl)cc4cc(Cl)cnc34)ccc2F)COCC(N)=N1 [Example 27, [3-((R)-5-Amino-3-methyl-3,6-dihydro-2H-[1,4]oxazin-3-yl)-4-fluoro-phenyl]-(3,6-dichloro-quinolin-8-yl)-amine] | 660 nM | > 50 µM | 558 nM | 33 µM | 4.5 µM |  | 
2 | C[C@@]1(c2cc(Nc3cccc4cc(OC(F)F)cnc34)ccc2F)COCC(N)=N1 [Example 29, [3-((R)-5-Amino-3-methyl-3,6-dihydro-2H-[1,4]oxazin-3-yl)-4-fluoro-phenyl]-(3-difluoromethoxy-quinolin-8-yl)-amine] | 270 nM |  | 2300 nM |  |  | 21.1 µM | 17.6 µM
3 | Cn1nc(Nc2ccc(F)c([C@@]3(C)COCC(N)=N3)c2)c2ccc(Cl)cc21 [Example 34, (S)-5-(5-(6-chloro-1-methyl-1H-indazol-3-ylamino)-2-fluorophenyl)-5-methyl-5,6-dihydro-2H-1,4-oxazin-3-amine] | 1040 nM | 6.7 µM | 1480 nM | 25 µM | 2 µM |  | 
4 | CC1(c2cccc(Nc3cc(F)cc4cc(Cl)cnc34)c2)COCC(N)=N1 (stereo not shown) [Example 36, [3-(5-Amino-3-methyl-3,6-dihydro-2H-[1,4]oxazin-3-yl)-phenyl]-(3-chloro-6-fluoro-quinolin-8-yl)-amine] | 250 nM |  |  |  |  | 2.6 µM | 5 µM
5 | C[C@@]1(c2cc(N[C@H]3CCC[C@H]3O)ccc2F)COCC(N)=N1 [Example 20, (1R,2S)-2-(3-((R)-5-amino-3-methyl-3,6-dihydro-2H-1,4-oxazin-3-yl)-4-fluorophenylamino)cyclopentanol] | 610 nM |  | 2270 nM |  |  |  | 
6 | C[C@@]1(c2cc(Nc3ccon3)ccc2F)COCC(N)=N1 [Example 33, (R)-5-[2-Fluoro-5-(isoxazol-3-ylamino)-phenyl]-5-methyl-5,6-dihydro-2H-[1,4]oxazin-3-ylamine] | 580 nM |  | 1210 nM |  |  |  | 
7 | C[C@@]1(c2cc(Nc3ccccc3OCC(F)F)ccc2F)COCC(N)=N1 [Example 41, (R)-5-{5-[2-(2,2-Difluoro-ethoxy)-phenylamino]-2-fluoro-phenyl}-5-methyl-5,6-dihydro-2H-[1,4]oxazin-3-ylamine] | 2140 nM |  | 10 nM |  |  |  | 
8 | CC1(c2cccc(Nc3cccc4cc(Cl)cnc34)c2)COCC(N)=N1 (stereo not shown) [Example 24, [3-(5-Amino-3-methyl-3,6-dihydro-2H-[1,4]oxazin-3-yl)-phenyl]-(3-chloro-quinolin-8-yl)-amine] | 250 nM |  | 18 nM |  |  |  | 
